Experimental data as given in patent US11078216B2, “Bisaryl amides as NRF2 activators” (GLAXOSMITHKLINE INTELLECTUAL PROPERTY DEVELOPMENT LIMITED, priority 2016, dated 2021).

Tested on: NRF2 (NQO1 activity as marker for NRF2 activation), BEAS-2B cells
Experiment: BEAS-2B NQO1 MTT Assay
Type: cell-based
Conditions: Homo sapiens, EC50 of NQO1 specific activity induction, 48 hours incubation, read-out: EC50
Procedure, shortened: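 As a marker of NRF2 activation, NQO1 specific activity was read from the rate of absorbance change at 570 nm in MTT cocktail over 30 minutes. Lysates came from BEAS-2B cells treated for 48 hours at 37° C, and EC50 was derived by 3-parameter fitting.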

| Compound | EC50 |
| --- | --- |
| CC[C@@H]1CN(Cc2cc([C@@H](c3ccc4c(nnn4CC)c3C)C(C)(C)C(=O)Nc3cnc(OCC(=O)OC)nc3)ccc2C)S(=O)(=O)c2ccccc2O1 [Example 190, Methyl 2-((5-((S)-3-(3-(((R)-4-ethyl-1,1-dioxido-3,4-dihydro-2H-benzo[b][1,4,5]oxathiazepin-2-yl)methyl)-4-methylphenyl)-3-(1-ethyl-4-methyl-1H-benzo[d][1,2,3]triazol-5-yl)-2,2-dimethylpropanamido)pyrimidin-2-yl)oxy)acetate] | 100 to 1000 nM |
| CC[C@@H]1CN(Cc2cc([C@@H](c3ccc4c(nnn4CC)c3C)C(C)(C)C(=O)Nc3cnc(OCCNC(=O)OC(C)(C)C)nc3)ccc2C)S(=O)(=O)c2ccccc2O1 [Example 191, tert-Butyl (2-((5-((S)-3-(3-(((R)-4-ethyl-1,1-dioxido-3,4-dihydro-2H-benzo[b]-[1,4,5]oxathiazepin-2-yl)methyl)-4-methylphenyl)-3-(1-ethyl-4-methyl-1H-benzo[d][1,2,3]triazol-5-yl)-2,2-dimethylpropanamido)pyrimidin-2-yl)oxy)-ethyl)carbamate] | 10 to 100 nM |
| CC[C@@H]1CN(Cc2cc([C@@H](c3ccc4c(nnn4CC)c3C)C(C)(C)C(=O)Nc3cnc(OCCOC(C)(C)C)nc3)ccc2C)S(=O)(=O)c2ccccc2O1 [Example 192, (S)-N-(2-(2-(tert-Butoxy)ethoxy)pyrimidin-5-yl)-3-(3-(((R)-4-ethyl-1,1-dioxido-3,4-dihydro-2H-benzo[b][1,4,5]oxathiazepin-2-yl)methyl)-4-methylphenyl)-3-(1-ethyl-4-methyl-1H-benzo[d][1,2,3]triazol-5-yl)-2,2-dimethylpropanamide] | 10 to 100 nM |
| CC[C@@H]1CN(Cc2cc([C@@H](c3ccc4c(nnn4CC)c3C)C(C)(C)C(=O)Nc3cnc(OCCOC)nc3)ccc2C)S(=O)(=O)c2ccccc2O1 [Example 193, (S)-3-(3-(((R)-4-Ethyl-1,1-dioxido-3,4-dihydro-2H-benzo[b][1,4,5]oxathiazepin-2-yl)methyl)-4-methylphenyl)-3-(1-ethyl-4-methyl-1H-benzo[d][1,2,3]triazol-5-yl)-N-(2-(2-methoxyethoxy)pyrimidin-5-yl)-2,2-dimethylpropanamide] | 1 to 10 nM |
| CC[C@@H]1CN(Cc2cc([C@@H](c3ccc4c(nnn4CC)c3C)C(C)(C)C(=O)Nc3cnc(CO)nc3)ccc2C)S(=O)(=O)c2ccccc2O1 [Example 194, (S)-3-(3-(((R)-4-Ethyl-1,1-dioxido-3,4-dihydro-2H-benzo[b][1,4,5]oxathiazepin-2-yl)methyl)-4-methylphenyl)-3-(1-ethyl-4-methyl-1H-benzo[d][1,2,3]triazol-5-yl)-N-(2-(hydroxymethyl)pyrimidin-5-yl)-2,2-dimethylpropanamide] | 10 to 100 nM |
| CC[C@@H]1CN(Cc2cc([C@@H](c3ccc4c(nnn4CC)c3C)C(C)(C)C(=O)Nc3cnc(C(=O)O)nc3)ccc2C)S(=O)(=O)c2ccccc2O1 [Example 195, 5-((S)-3-(3-(((R)-4-Ethyl-1,1-dioxido-3,4-dihydro-2H-benzo[b][1,4,5]oxathiazepin-2-yl)methyl)-4-methylphenyl)-3-(1-ethyl-4-methyl-1H-benzo[d][1,2,3]triazol-5-yl)-2,2-dimethylpropanamido)pyrimidine-2-carboxylic Acid] | 10 to 100 nM |
| CC[C@@H]1CN(Cc2cc([C@@H](c3ccc4c(nnn4CC)c3C)C(C)(C)C(=O)Nc3cnc(CN)nc3)ccc2C)S(=O)(=O)c2ccccc2O1 [Example 196, (S)—N-(2-(Aminomethyl)pyrimidin-5-yl)-3-(3-(((R)-4-ethyl-1,1-dioxido-3,4-dihydro-2H-benzo[b][1,4,5]oxathiazepin-2-yl)methyl)-4-methylphenyl)-3-(1-ethyl-4-methyl-1H-benzo[d][1,2,3]triazol-5-yl)-2,2-dimethylpropanamide] | 100 to 1000 nM |
| CC[C@@H]1CN(Cc2cc([C@@H](c3ccc4c(nnn4CC)c3C)C(C)(C)C(=O)Nc3cnc(OCC(=O)O)nc3)ccc2C)S(=O)(=O)c2ccccc2O1 [Example 197, 2-((5-((S)-3-(3-(((R)-4-Ethyl-1,1-dioxido-3,4-dihydro-2H-benzo[b][1,4,5]oxathiazepin-2-yl)methyl)-4-methylphenyl)-3-(1-ethyl-4-methyl-1H-benzo[d][1,2,3]triazol-5-yl)-2,2-dimethylpropanamido)pyrimidin-2-yl)oxy)acetic Acid] | 10 to 100 nM |
| CC[C@@H]1CN(Cc2cc([C@@H](c3ccc4c(nnn4CC)c3C)C(C)(C)C(=O)Nc3cnc(OCCN)nc3)ccc2C)S(=O)(=O)c2ccccc2O1 [Example 198, (S)—N-(2-(2-Aminoethoxy)pyrimidin-5-yl)-3-(3-(((R)-4-ethyl-1,1-dioxido-3,4-dihydro-2H-benzo[b][1,4,5]oxathiazepin-2-yl)methyl)-4-methylphenyl)-3-(1-ethyl-4-methyl-1H-benzo[d][1,2,3]triazol-5-yl)-2,2-dimethylpropanamide] | 10 to 100 nM |
| CC[C@@H]1CN(Cc2cc([C@@H](c3ccc4c(nnn4CC)c3C)C(C)(C)C(=O)Nc3cnc(OCCO)nc3)ccc2C)S(=O)(=O)c2ccccc2O1 [Example 199, (S)-3-(3-(((R)-4-Ethyl-1,1-dioxido-3,4-dihydro-2H-benzo[b][1,4,5]oxathiazepin-2-yl)methyl)-4-methylphenyl)-3-(1-ethyl-4-methyl-1H-benzo[d][1,2,3]triazol-5-yl)-N-(2-(2-hydroxyethoxy)pyrimidin-5-yl)-2,2-dimethylpropanamide] | 10 to 100 nM |
| CC[C@@H]1CN(Cc2cc([C@@H](c3ccc4c(nnn4CC)c3C)C(C)(C)C(=O)NCC(=O)O)ccc2C)S(=O)(=O)c2ccccc2O1 [Example 200, 2-((S)-3-(3-(((R)-4-ethyl-1,1-dioxido-3,4-dihydro-2H-benzo[b][1,4,5]oxathiazepin-2-yl)methyl)-4-methylphenyl)-3-(1-ethyl-4-methyl-1H-benzo[d][1,2,3]triazol-5-yl)-2,2-dimethylpropanamido)acetate] | 10 to 100 nM |
| CC[C@@H]1CN(Cc2cc([C@@H](c3ccc4c(nnn4CC)c3C)C(C)(C)C(=O)NCCC(=O)O)ccc2C)S(=O)(=O)c2ccccc2O1 [Example 201, 3-((S)-3-(3-(((R)-4-ethyl-1,1-dioxido-3,4-dihydro-2H-benzo[b][1,4,5]oxathiazepin-2-yl)methyl)-4-methylphenyl)-3-(1-ethyl-4-methyl-1H-benzo[d][1,2,3]triazol-5-yl)-2,2-dimethylpropanamido)propanoic acid] | 100 to 1000 nM |
| CC[C@@H]1CN(Cc2cc([C@@H](c3ccc4c(nnn4CC)c3C)C(C)(C)C(=O)NC(CC(=O)O)C(=O)O)ccc2C)S(=O)(=O)c2ccccc2O1 (stereo partly drawn) [Example 202, 2-((S)-3-(3-(((R)-4-ethyl-1,1-dioxido-3,4-dihydro-2H-benzo[b][1,4,5]oxathiazepin-2-yl)methyl)-4-methylphenyl)-3-(1-ethyl-4-methyl-1H-benzo[d][1,2,3]triazol-5-yl)-2,2-dimethylpropanamido)succinic acid] | 1 to 10 nM |
| CC[C@@H]1CN(Cc2cc([C@@H](c3ccc4c(nnn4CC)c3C)C(C)(C)C(=O)NC(CC(=O)O)CC(=O)O)ccc2C)S(=O)(=O)c2ccccc2O1 [Example 203, 3-((S)-3-(3-(((R)-4-ethyl-1,1-dioxido-3,4-dihydro-2H-benzo[b][1,4,5]oxathiazepin-2-yl)methyl)-4-methylphenyl)-3-(1-ethyl-4-methyl-1H-benzo[d][1,2,3]triazol-5-yl)-2,2-dimethylpropanamido)pentanedioic acid] | 1000 to 10000 nM |
| CC[C@@H]1CN(Cc2cc([C@@H](c3ccc4c(nnn4CC)c3C)C(C)(C)C(=O)NC(CC(=O)O)c3ccncc3)ccc2C)S(=O)(=O)c2ccccc2O1 (stereo partly drawn) [Example 204, 3-((S)-3-(3-(((R)-4-ethyl-1,1-dioxido-3,4-dihydro-2H-benzo[b][1,4,5]oxathiazepin-2-yl)methyl)-4-methylphenyl)-3-(1-ethyl-4-methyl-1H-benzo[d][1,2,3]triazol-5-yl)-2,2-dimethylpropanamido)-3-(pyridin-4-yl)propanoic acid] | 100 to 1000 nM |
| CC[C@@H]1CN(Cc2cc([C@@H](c3ccc4c(nnn4CC)c3C)C(C)(C)C(=O)NC(C)C(=O)O)ccc2C)S(=O)(=O)c2ccccc2O1 (stereo partly drawn) [Example 205, 2-((S)-3-(3-(((R)-4-ethyl-1,1-dioxido-3,4-dihydro-2H-benzo[b][1,4,5]oxathiazepin-2-yl)methyl)-4-methylphenyl)-3-(1-ethyl-4-methyl-1H-benzo[d][1,2,3]triazol-5-yl)-2,2-dimethylpropanamido)propanoic acid] | 100 to 1000 nM |
| CC[C@@H]1CN(Cc2cc([C@@H](c3ccc4c(nnn4CC)c3C)C(C)(C)C(=O)NCCC(F)(F)F)ccc2C)S(=O)(=O)c2ccccc2O1 [Example 206, (S)-3-(3-(((R)-4-ethyl-1,1-dioxido-3,4-dihydro-2H-benzo[b][1,4,5]oxathiazepin-2-yl)methyl)-4-methylphenyl)-3-(1-ethyl-4-methyl-1H-benzo[d][1,2,3]triazol-5-yl)-2,2-dimethyl-N-(3,3,3-trifluoropropyl)propanamide] | 10 to 100 nM |
| CC[C@@H]1CN(Cc2cc([C@@H](c3ccc4c(nnn4CC)c3C)C(C)(C)C(=O)NC(C)(C)C(=O)O)ccc2C)S(=O)(=O)c2ccccc2O1 [Example 207, 2-((S)-3-(3-(((R)-4-ethyl-1,1-dioxido-3,4-dihydro-2H-benzo[b][1,4,5]oxathiazepin-2-yl)methyl)-4-methylphenyl)-3-(1-ethyl-4-methyl-1H-benzo[d][1,2,3]triazol-5-yl)-2,2-dimethylpropanamido)-2-methylpropanoic acid] | 100 to 1000 nM |
| CC[C@@H]1CN(Cc2cc([C@@H](c3ccc4c(nnn4CC)c3C)C(C)(C)C(=O)NCC(N)=O)ccc2C)S(=O)(=O)c2ccccc2O1 [Example 208, (S)-N-(2-amino-2-oxoethyl)-3-(3-(((R)-4-ethyl-1,1-dioxido-3,4-dihydro-2H-benzo[b][1,4,5]oxathiazepin-2-yl)methyl)-4-methylphenyl)-3-(1-ethyl-4-methyl-1H-benzo[d][1,2,3]triazol-5-yl)-2,2-dimethylpropanamide] | 10 to 100 nM |
